Laboratory results from patent publication US8304448B2, “Method for the treatment of metabolic disorder containing benzazole derivatives as an active ingredient” (Korea Research Institute of Bioscience and Biotechnology, priority 2006, dated 2012).

What was measured:
[1] = test system: DGAT; test: Assay for inhibitory activity against DGAT ([14C]triacylglycerol formation, rat microsomal protein); assay type: biochemical; conditions: rat microsomal protein as enzyme source
Description: The derivatives of Chemical Formula 1 in accordance with the present invention are found to inhibit the enzymatic activity of DGAT at a dose-dependent manner (refer to Table 2 and FIG. 1) as measured in a test in which [^14C]triacylglycerol was quantitatively analyzed after enzymatic reaction between 1,2-diacylglycerol and [^14C]palmitoyl-CoA, with microsomal proteins from rats serving as an enzyme source (refer to Example 1).
After enzymatic reaction between two substrates 1,2-diacylglycerol (Sigma, D0138) and [^14C]palmitoyl-CoA (Amersham, CFA583) with the microsomal protein of rat serving as an enzyme source in accordance with Coleman et al, Methods Enzymol., 98-103, 1992, the resulting product [^14C] triacylglycerol was measured for radioactivity. In detail, to a reaction buffer (175 mM Tris-HCl, pH 8.0, 20 μl bovine serum albumin (10 mg/ml), 100 mM MgCl2, 30 μM [^14C] palmitoyl-CoA (0.02 μCi, Amersham) and 200 μM 1,2-dioleoyl glycerol) was added 10 μl of a solution of the samples in dimethylsulfoxide (DMSO) and then 100˜200 μl of an isolated microsomal protein, followed by reaction at 25° C. for 10 min. The reaction was terminated with 1.5 ml of a mixture of 80:20:2 2-propanol:heptane:water (v:v:v). Thereafter, the [^14C] triacylglycerol thus formed was separated. In this regard, 1 ml of heptane and 0.5 ml of distilled water were added to the reaction mixture, which was then shaken. 1 ml of the supernatant thus formed was mixed with 2 ml of an alkaline ethanol solution (ethanol:0.5 N sodium hydroxide:water=50:10:40, v:v:v), followed by shaking. After being taken, 0.65 ml of the supernatant thus formed was measured for radioactivity using an LSC (liquid scintillation counter). The inhibitory activity against DGAT was calculated according to the following Mathematical Formula 1. The inhibitory effects of the benzazole derivatives on DGAT are summarized in Table 2, below while % DGAT inhibition is plotted against doses of compound 22 and 31 in FIG. 1.
T: Cpm of a test group in which a sample was added to an enzymatic buffer,
C: Cpm of a control in which no samples were added to an enzymatic buffer,
B: Cpm of a control in which a sample was added in the absence of any enzyme source.

[2] = test system: ICR mice fed a high-fat diet; test: In vivo assay for anti-obesity activity in mice fed a high-fat diet; parameters: species or system mouse; conditions: high-fat diet
Experimental: Also, the derivatives of Chemical Formula 1 were tested for resistance to obesity by iterative oral administration at a dose of 10 mg/kg into ICR male mice (refer to Example 3). […] When they were administered, the levels of total triglycerides, total cholesterols, and low density lipoprotein (LDL)-cholesterol in the blood recovered to almost normal levels, with a significant increase observed in the level of high density lipoprotein (HDL)-cholesterol in the blood (refer to Tables 6 and 7 and FIGS. 3 and 4).
In order to verify the anti-obesity activity of the benzaldehyde derivatives of Chemical Formula 1 in accordance with the present invention, Compounds 22 and 31 were administered repetitively into rodents as follows.
The experimental animals were 6 week old ICR mice which were purchased from Japan SLC, Inc. via Central Lab. Animal Inc. Korea. They were acclimated to a new environment for one week before use, and fed with a foodstuff commercially available from Deyts, U.S.A. They were bred in an animal lab set at a temperature of 23±3° C. and RH 50±10% under light of 150˜300 Lux for a period of 12 hours (6 a.m.˜6 p.m.) with ventilation 10-20 times/hour. All of the 12 mice used were male, and were organized into two groups of 6. The test group was orally administered once a day at 4 p.m. with 10 mg/kg of the compound (Chemical Formula 1) in the form of a solution in biological saline for 35 days while the control was administered with biological saline only. Xenical, a commercially available lipase inhibitor, was administered orally at a dose of 10 mg/kg once a day as a positive control drug.
The animals were measured for body weight every week and sacrificed on Day 35, after which blood from the heart was sampled. Abdominal fat, epididymal fat, retroperitoneal fat and the liver were excised and weighed. Blood samples were assayed for total triglyceride, total cholesterol, HDL-cholesterol and LDL-cholesterol using respective test kits, all commercially available from Asan Pharmaceutical Co. Ltd., Korea.
For evidence of anti-obesity activity, compounds 22 and 31 were orally administered at regular intervals at a dose of 10 mg/kg into ICR male mice for a predetermined period of time with the concurrent provision of conditional diets thereto. Anatomized abdomens of the animals are given in the photographs of FIG. 2.

[3] = Day 35, 10 mg/kg oral, Mean ± SD
[4] = blood, Day 35, 10 mg/kg oral, Mean ± SD

Row | Compound | DGAT (% inhibition in 25 μM) [1] | other results
1 | COC(=O)c1ccc2nc(COc3ccc(C45CC6CC(CC(C6)C4)C5)cc3)oc2c1 [Cpd. 3, 2-(4-adamantan-1-yl-phenoxymethyl)-benzoxazole-6-carboxylic acid methyl ester] | −5.34% | –
2 | CC(C)(C)c1ccc(OCc2nc3ccc(C(=O)O)cc3o2)cc1 [compound 17, 2-(4-tert-butyl-phenoxymethyl)-benzoxazole-6-carboxylic acid] | −29.81% | –
3 | COC(=O)c1ccc2[nH]c(COc3ccc([N+](=O)[O-])cc3)nc2c1 [compound 9, 2-(4-nitro-phenoxymethyl)-1H-benzoimidazole-5-carboxylic acid methyl ester] | 0.61% | DGAT (% inhibition in 5 μM) [1]: −5.6%
4 | CN(C)C(=O)c1ccc2oc(COc3ccc(C45CC6CC(CC(C6)C4)C5)cc3)nc2c1 [compound 21, 2-(4-adamantan-1-yl-phenoxymethyl)-benzoxazole-5-carboxylic acid dimethylamide] | 10.49% | –
5 | COC(=O)c1ccc2[nH]c(COc3ccc(Cl)cc3Cl)nc2c1 [compound 6, 2-(2,4-dichloro-phenoxymethyl)-1H-benzoimidazole-5-carboxylic acid methyl ester] | 0.63% | –
6 | COC(=O)c1ccc2oc(COc3ccc(Cl)cc3Cl)nc2c1 [Cpd. 1, 2-(2,4-dichloro-phenoxymethyl)-benzoxazole-5-carboxylic acid methyl ester] | −2.64% | –
7 | CC(C)(C)c1ccc(OCc2nc3cc(C(=O)O)ccc3[nH]2)cc1 [compound 18, 2-(4-tert-butyl-phenoxymethyl)-1H-benzoimidazole-5-carboxylic acid] | −13.05% | –
8 | COC(=O)c1ccc2oc(COc3ccc(C45CC6CC(CC(C6)C4)C5)cc3)nc2c1 [Cpd. 2, 2-(4-adamantan-1-yl-phenoxymethyl)-benzoxazole-5-carboxylic acid methyl ester] | −25.72% | –
9 | COC(=O)c1ccc2nc(COc3ccc(Cl)cc3Cl)oc2c1 [compound 5, 2-(2,4-dichloro-phenoxymethyl)-benzoxazole-6-carboxylic acid methyl ester] | 1.98% | –
10 | O=C(O)c1ccc2nc(COc3ccc(Cl)cc3Cl)oc2c1 [compound 15, 2-(2,4-dichloro-phenoxymethyl)-benzoxazole-6-carboxylic acid] | −13.03% | –
11 | O=C(O)c1ccc2oc(COc3ccc(C45CC6CC(CC(C6)C4)C5)cc3)nc2c1 [compound 12, 2-(4-adamantan-1-yl-phenoxymethyl)-benzoxazole-5-carboxylic acid] | −10.43% | –
12 | CN(C)CCNC(=O)c1ccc2[nH]c(COc3ccc(C45CC6CC(CC(C6)C4)C5)cc3)nc2c1 [compound 32, 2-(4-adamantan-1-yl-phenoxymethyl)-1H-benzoimidazole-5-carboxylic acid (2-dimethylamino-ethyl)-amide] | −3.08% | –
13 | O=C(NCc1ccco1)c1ccc2nc(COc3ccc(Cl)cc3Cl)oc2c1 [compound 28, 2-(2,4-dichloro-phenoxymethyl)-benzoxazole-6-carboxylic acid (furan-2-ylmethyl)-amide] | −8.07% | –
14 | NNC(=O)c1ccc2[nH]c(COc3ccc(Cl)cc3Cl)nc2c1 [compound 34, 2-(2,4-dichloro-phenoxymethyl)-1H-benzoimidazole-5-carboxylic acid hydrazide] | 6.74% | –
15 | O=C(O)c1ccc2[nH]c(COc3ccc(C45CC6CC(CC(C6)C4)C5)cc3)nc2c1 [compound 14, 2-(4-adamantan-1-yl-phenoxymethyl)-1H-benzoimidazole-5-carboxylic acid] | −13.17% | –
16 | O=C(NCc1ccco1)c1ccc2nc(COc3ccc(C45CC6CC(CC(C6)C4)C5)cc3)oc2c1 [compound 27] | 13.26% | –
17 | O=C(O)c1ccc2[nH]c(COc3ccc([N+](=O)[O-])cc3)nc2c1 [compound 19, 2-(4-nitro-phenoxymethyl)-1H-benzoimidazole-5-carboxylic acid] | −5.86% | DGAT (% inhibition in 5 μM) [1]: 2.0%
18 | O=C(O)c1ccc2oc(COc3ccc(Cl)cc3Cl)nc2c1 [compound 11, 2-(2,4-dichloro-phenoxymethyl)-benzoxazole-5-carboxylic acid] | −16.48% | –
19 | CCCCCCCCCCC[C@@H](C[C@@H]1OC(=O)[C@H]1CCCCCC)OC(=O)[C@H](CC(C)C)NC=O [Xenical, reference compound] | – | (Tissue Weight/Body Weight) × 100 Abdominal Fat + Epididymal Fat [2, 3]: 2.45 ± 1.03; (Tissue Weight/Body Weight) × 100 Liver [2, 3]: 4.31 ± 0.76; (Tissue Weight/Body Weight) × 100 Retroperitoneal Fat [2, 3]: 0.75 ± 0.50; (Tissue Weight/Body Weight) × 100 Total Fat [2, 3]: 3.20 ± 1.52; HDL-Cholesterol [2, 4]: 30.28 ± 1.52 mg/dL; LDL-Cholesterol [2, 4]: 20.45 ± 8.99 mg/dL; Total Cholesterol [2, 4]: 53.75 ± 12.35 mg/dL; Total Triglyceride [2, 4]: 40.77 ± 6.06 mg/dL; inhibition of body weight gain ([2]; 10 mg/kg oral once a day for 35 days): 88%; Body Weight (g) (Mean ± SD) Week 0 ([2]; 10 mg/kg oral once a day, Week 0): 26.30 ± 1.45 g; Body Weight (g) (Mean ± SD) Week 1 ([2]; 10 mg/kg oral once a day, Week 1): 33.63 ± 1.28 g; Body Weight (g) (Mean ± SD) Week 2 ([2]; 10 mg/kg oral once a day, Week 2): 37.41 ± 2.02 g; Body Weight (g) (Mean ± SD) Week 3 ([2]; 10 mg/kg oral once a day, Week 3): 39.11 ± 0.90 g; Body Weight (g) (Mean ± SD) Week 4 ([2]; 10 mg/kg oral once a day, Week 4): 39.95 ± 1.26 g; Body Weight (g) (Mean ± SD) Week 5 ([2]; 10 mg/kg oral once a day, Week 5): 41.24 ± 1.60 g
20 | O=C(O)c1ccc2nc(COc3ccc(C45CC6CC(CC(C6)C4)C5)cc3)oc2c1 [compound 13, 2-(4-adamantan-1-yl-phenoxymethyl)-benzoxazole-6-carboxylic acid] | −18.53% | –
21 | O=C(NCCCn1ccnc1)c1ccc2[nH]c(COc3ccc(C45CC6CC(CC(C6)C4)C5)cc3)nc2c1 [compound 33, 2-(4-adamantan-1-yl-phenoxymethyl)-1H-benzoimidazole-5-carboxylic acid (3-imidazol-1-yl-propyl)-amide] | 16.99% | –
22 | O=C(O)c1ccc2[nH]c(COc3ccc(Cl)cc3Cl)nc2c1 [compound 16, 2-(2,4-dichloro-phenoxymethyl)-1H-benzoimidazole-5-carboxylic acid] | −7.37% | –
23 | NC(=O)c1ccc2nc(COc3ccc(C45CC6CC(CC(C6)C4)C5)cc3)[nH]c2c1 [compound 29, 2-(4-adamantan-1-yl-phenoxymethyl)-3H-benzoimidazole-5-carboxylic acid amide] | −13.38% | DGAT (% inhibition in 5 μM) [1]: −1.8%
24 | O=C(NCc1ccco1)c1ccc2nc(COc3ccc(Cl)cc3Cl)[nH]c2c1 [compound 35, 2-(2,4-dichloro-phenoxymethyl)-3H-benzoimidazole-5-carboxylic acid (furan-2-ylmethyl)-amide] | 28.63% | –
25 | COC(=O)c1ccc2nc(COc3ccc(C(C)(C)C)cc3C(C)(C)C)oc2c1 [compound 7, 2-(2,4-tert-butyl-phenoxymethyl)-benzoxazole-6-carboxylic acid methyl ester] | 34.5% | –
